According to patent US20240197766A1, “TREATMENT OF RNA VIRUS INFECTION WITH A CYTIDINE” (The Cleveland Clinic Foundation, priority 2021, published 2024):
Values joined by “and” are separate entries in the source; they are usually repeats but may differ in a detail not shown here. Equal entries are not always repeated. “Also recorded” adds a separate entry of the source. Where two headings read alike, the source gives them in different places.

Assays:
[1] = tested on: cytidine analog deamination; test: THU clinical pharmacodynamics: deamination of co-administered cytidine analogs
[2] = THU clinical pharmacokinetics, oral 750 mg in healthy volunteers; settings: male, human, in vivo
[3] = cited from earlier work
coronavirus = type: cell-based; settings: THU 24 hours at clinically relevant concentrations, human lung epithelial cells, plaque assay and QRT-PCR
serum uridine levels = test: THU clinical pharmacodynamics: serum uridine and cytidine levels
Description: Volunteers (3 males; 3 females) received a single THU dose of 750 mg 7 days apart, the 1st dose in a fasted state and the 2nd after a standard FDA meal.

host cell = settings: clinically relevant concentrations, data from Xiong et al.; cited from earlier work
[4] = read-out: routine Cmax; clinical; cited from earlier work
CMV = settings: case series of renal transplantation patients; cited from earlier work

O=C1NC(O)CCN1[C@@H]1O[C@H](CO)[C@@H](O)[C@H]1O (stereo partly shown) [THU, tetrahydrouridine]
reduction in cytidine analog deamination [1]: ~90%
Cmax [2]: 2 µM to 8 µM and 500 ng/mL to 2000 ng/mL
Tmax [2]: ~3 h
administered drug excreted through the kidneys within 24 h ([3]; renal excretion, within 24 h): approximately 50%
elimination within 48 hours ([3]; within 48 hours): 100%
coronavirus (VSV) replication (coronavirus): inhibited coronavirus replication; also recorded: significantly inhibited
decrease of uridine availability to non-dividing cells (serum uridine levels; inhibition of 2 CDA-mediated uridine supply routes): ≤ 90%
serum cytidine levels (serum uridine levels; single THU dose of 750 mg): increasing
decrease in serum uridine levels (serum uridine levels; single THU dose of 750 mg, fasted and fed states, males and females): 50-80% and 50-90%
reduction of uridine available for systemic salvage (serum uridine levels; standard, non-toxic doses): up to 90%

C/C(O)=C(\C#N)C(=O)Nc1ccc(C(F)(F)F)cc1 [Teriflunomide, teriflunomide]
host cell cytotoxicity (host cell): minimal
Cmax [4]: 10 to 100 µM

Cc1oncc1C(=O)Nc1ccc(C(F)(F)F)cc1 [leflunomide]
clinical outcome of CMV infection (CMV): cleared virus and/or produced clinical improvement
